Biological target: human IRAK4 (Homo sapiens (Human), UniProt Q9NWZ3)
Test: IRAK4 kinase inhibition, Transcreener fluorescence polarization ADP assay
Format: biochemical
Conditions: recombinant full-length His6-IRAK4; 125 uM ATP; 90 min; Ki computed using ATP Km 642 uM
Procedure: Compounds were assayed for inhibition of human IRAK4 and IRAK1 catalytic activity using recombinant enzyme produced from insect cells. Full-length IRAK4 protein, carrying an N-terminal His6-Tag, was obtained from Life Technologies (Carlsbad, Calif., USA). The IRAK1 construct was produced internally and was comprised of IRAK1 residues Arg194 to Ser712, preceded by an NH2-terminal His6 tag and the coding sequence for glutathione-S-transferase.

Sequence of human IRAK4 (Q9NWZ3 whole entry): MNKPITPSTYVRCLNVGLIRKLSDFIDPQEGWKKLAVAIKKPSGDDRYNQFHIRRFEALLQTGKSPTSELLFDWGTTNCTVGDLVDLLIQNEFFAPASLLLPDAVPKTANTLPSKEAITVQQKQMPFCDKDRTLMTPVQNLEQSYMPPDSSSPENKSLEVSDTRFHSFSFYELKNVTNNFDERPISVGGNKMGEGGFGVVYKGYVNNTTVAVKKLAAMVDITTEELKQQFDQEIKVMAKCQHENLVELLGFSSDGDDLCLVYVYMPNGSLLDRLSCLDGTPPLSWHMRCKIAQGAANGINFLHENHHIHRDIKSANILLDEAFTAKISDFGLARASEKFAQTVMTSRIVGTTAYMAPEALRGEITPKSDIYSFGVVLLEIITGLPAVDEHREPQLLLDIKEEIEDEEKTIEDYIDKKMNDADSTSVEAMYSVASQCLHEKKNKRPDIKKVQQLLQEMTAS

Row | Compound | Ki [µM]
1 | CC1(C)Cc2cc(NC(=O)c3cnn4cccnc34)c(N3CCN4CCC[C@H]4C3)cc2O1 [Example 442, (S)-N-(6-(hexahydropyrrolo[1,2-a]pyrazin-2(1H)-yl)-2,2-dimethyl-2,3-dihydrobenzofuran-5-yl)pyrazolo[1,5-a]pyrimidine-3-carboxamide] | 0.096
2 | CC1(C)Cc2cc(NC(=O)c3cnn4cccnc34)c(N3CCN4CCC[C@@H]4C3)cc2O1 [Example 443, (R)-N-(6-(hexahydropyrrolo[1,2-a]pyrazin-2(1H)-yl)-2,2-dimethyl-2,3-dihydrobenzofuran-5-yl)pyrazolo[1,5-a]pyrimidine-3-carboxamide] | 0.038
3 | CSCC[C@@]1(C)Cc2cc(NC(=O)c3cnn4cccnc34)c(N3CCOCC3)cc2O1 [Example 444, (R)—N-(2-methyl-2-(2-(methylthio)ethyl)-6-morpholino-2,3-dihydrobenzofuran-5-yl)pyrazolo[1,5-a]pyrimidine-3-carboxamide] | 0.0028
4 | CC1(C)Cc2cc(NC(=O)c3cnn4cccnc34)c(O[C@@H]3CCN(CC(N)=O)C3)cc2O1 [Example 445, (R)—N-(6-((1-(2-amino-2-oxoethyl)pyrrolidin-3-yl)oxy)-2,2-dimethyl-2,3-dihydrobenzofuran-5-yl)pyrazolo[1,5-a]pyrimidine-3-carboxamide] | 0.0033
5 | CC1(C)Cc2cc(NC(=O)c3cnn4cccnc34)c(OC3CN(CCO)C3)cc2O1 [Example 446, N-(6-((1-(2-hydroxyethyl)azetidin-3-yl)oxy)-2,2-dimethyl-2,3-dihydrobenzofuran-5-yl)pyrazolo[1,5-a]pyrimidine-3-carboxamide] | 0.052
6 | CC1(C)Cc2cc(NC(=O)c3cnn4cccnc34)c(O[C@H]3CCN(CC(N)=O)C3)cc2O1 [Example 447, (S)-N-(6-((1-(2-amino-2-oxoethyl)pyrrolidin-3-yl)oxy)-2,2-dimethyl-2,3-dihydrobenzofuran-5-yl)pyrazolo[1,5-a]pyrimidine-3-carboxamide] | 0.006
7 | CCn1cc(COc2cc3c(cc2NC(=O)c2cnn4cccnc24)CC(C)(C)O3)cn1 [Example 448, N-(6-((1-ethyl-1H-pyrazol-4-yl)methoxy)-2,2-dimethyl-2,3-dihydrobenzofuran-5-yl)pyrazolo[1,5-a]pyrimidine-3-carboxamide] | 0.024
8 | N[C@H]1CO[C@@H](CN2Cc3cc(NC(=O)c4cnn5cccnc45)c(N4CCOCC4)cc3C2=O)OC1 [Example 449, N-(2-(((2R,5R)-5-amino-1,3-dioxan-2-yl)methyl)-6-morpholino-1-oxoisoindolin-5-yl)pyrazolo[1,5-a]pyrimidine-3-carboxamide] | 0.08
9 | COc1cc2c(cc1NC(=O)c1cnn3ccc(N[C@@H]4CCCC[C@@H]4N)nc13)CC(C)(C)O2 [Example 451, 5-[[(1R,2S)-2-aminocyclohexyl]amino]-N-(6-methoxy-2,2-dimethyl-3H-benzofuran-5-yl)pyrazolo[1,5-a]pyrimidine-3-carboxamide] | 0.0047
10 | CC1(C)Cc2cc(NC(=O)c3cnn4cccnc34)c(C(N)=O)cc2O1 [Example 452, N-(6-carbamoyl-2,2-dimethyl-3H-benzofuran-5-yl)pyrazolo[1,5-a]pyrimidine-3-carboxamide] | 0.15
11 | CCN1CCN(c2cc3c(cc2NC(=O)c2cnn4cccnc24)CC(C)(C)O3)CC1 [Example 453, N-(6-(4-ethylpiperazin-1-yl)-2,2-dimethyl-2,3-dihydrobenzofuran-5-yl)pyrazolo[1,5-a]pyrimidine-3-carboxamide] | 0.044
12 | CSCCN1CCN(c2cc3c(cc2NC(=O)c2cnn4cccnc24)CC(C)(C)O3)CC1 [Example 454, N-(2,2-dimethyl-6-(4-(2-(methylthio)ethyl)piperazin-1-yl)-2,3-dihydrobenzofuran-5-yl)pyrazolo[1,5-a]pyrimidine-3-carboxamide] | 0.0088
13 | CC1(C)Cc2cc(NC(=O)c3cnn4cccnc34)c(N3CCN(CCC(N)=O)CC3)cc2O1 [Example 455, N-(6-(4-(3-amino-3-oxopropyl)piperazin-1-yl)-2,2-dimethyl-2,3-dihydrobenzofuran-5-yl)pyrazolo[1,5-a]pyrimidine-3-carboxamide] | 0.0058
14 | CC1(C)Cc2cc(NC(=O)c3cnn4cccnc34)c(N3CCN(CC#N)CC3)cc2O1 [Example 456, N-(6-(4-(cyanomethyl)piperazin-1-yl)-2,2-dimethyl-2,3-dihydrobenzofuran-5-yl)pyrazolo[1,5-a]pyrimidine-3-carboxamide] | 0.0026
15 | CC1(C)Cc2cc(NC(=O)c3cnn4cccnc34)c(N3CCN(CCC#N)CC3)cc2O1 [Example 457, N-(6-(4-(2-cyanoethyl)piperazin-1-yl)-2,2-dimethyl-2,3-dihydrobenzofuran-5-yl)pyrazolo[1,5-a]pyrimidine-3-carboxamide] | 0.0044
16 | CC1(C)Cc2cc(NC(=O)c3cnn4cccnc34)c(N3CCN(CC4CC4)CC3)cc2O1 [Example 458, N-(6-(4-(cyclopropylmethyl)piperazin-1-yl)-2,2-dimethyl-2,3-dihydrobenzofuran-5-yl)pyrazolo[1,5-a]pyrimidine-3-carboxamide] | 0.037
17 | Cc1noc(CN2CCN(c3cc4c(cc3NC(=O)c3cnn5cccnc35)CC(C)(C)O4)CC2)n1 [Example 459, N-(2,2-dimethyl-6-(4-((3-methyl-1,2,4-oxadiazol-5-yl)methyl)piperazin-1-yl)-2,3-dihydrobenzofuran-5-yl)pyrazolo[1,5-a]pyrimidine-3-carboxamide] | 0.016
18 | Cn1cc(CN2CCN(c3cc4c(cc3NC(=O)c3cnn5cccnc35)CC(C)(C)O4)CC2)cn1 [Example 460, N-(2,2-dimethyl-6-(4-((1-methyl-1H-pyrazol-4-yl)methyl)piperazin-1-yl)-2,3-dihydrobenzofuran-5-yl)pyrazolo[1,5-a]pyrimidine-3-carboxamide] | 0.0059
19 | Cc1nc(CN2CCN(c3cc4c(cc3NC(=O)c3cnn5cccnc35)CC(C)(C)O4)CC2)no1 [Example 461, N-(2,2-dimethyl-6-(4-((5-methyl-1,2,4-oxadiazol-3-yl)methyl)piperazin-1-yl)-2,3-dihydrobenzofuran-5-yl)pyrazolo[1,5-a]pyrimidine-3-carboxamide] | 0.029
20 | CC1(C)Cc2cc(NC(=O)c3cnn4cccnc34)c(N3CCN(CCn4cccn4)CC3)cc2O1 [Example 462, N-(6-(4-(2-(1H-pyrazol-1-yl)ethyl)piperazin-1-yl)-2,2-dimethyl-2,3-dihydrobenzofuran-5-yl)pyrazolo[1,5-a]pyrimidine-3-carboxamide] | 0.0065
21 | Cc1nnc(CN2CCN(c3cc4c(cc3NC(=O)c3cnn5cccnc35)CC(C)(C)O4)CC2)o1 [Example 463, N-(2,2-dimethyl-6-(4-((5-methyl-1,3,4-oxadiazol-2-yl)methyl)piperazin-1-yl)-2,3-dihydrobenzofuran-5-yl)pyrazolo[1,5-a]pyrimidine-3-carboxamide] | 0.025
22 | CC1(C)Cc2cc(NC(=O)c3cnn4cccnc34)c(N3CCN(CC4CCOCC4)CC3)cc2O1 [Example 464, N-(2,2-dimethyl-6-(4-((tetrahydro-2H-pyran-4-yl)methyl)piperazin-1-yl)-2,3-dihydrobenzofuran-5-yl)pyrazolo[1,5-a]pyrimidine-3-carboxamide] | 0.067
23 | COCCCN1CCN(c2cc3c(cc2NC(=O)c2cnn4cccnc24)CC(C)(C)O3)CC1 [Example 465, N-(6-(4-(3-methoxypropyl)piperazin-1-yl)-2,2-dimethyl-2,3-dihydrobenzofuran-5-yl)pyrazolo[1,5-a]pyrimidine-3-carboxamide] | 0.038
24 | CC1(C)Cc2cc(NC(=O)c3cnn4cccnc34)c(N3CCN(CC4CCC4)CC3)cc2O1 [Example 466, N-(6-(4-(cyclobutylmethyl)piperazin-1-yl)-2,2-dimethyl-2,3-dihydrobenzofuran-5-yl)pyrazolo[1,5-a]pyrimidine-3-carboxamide] | 0.099
25 | CC1(C)Cc2cc(NC(=O)c3cnn4cccnc34)c(N3CCN(C4CCNC4=O)CC3)cc2O1 (stereo not drawn) [Example 467, N-(2,2-dimethyl-6-(4-(2-oxopyrrolidin-3-yl)piperazin-1-yl)-2,3-dihydrobenzofuran-5-yl)pyrazolo[1,5-a]pyrimidine-3-carboxamide] | 0.013
26 | CC1(C)Cc2cc(NC(=O)c3cnn4cccnc34)c(N3CCN(CC4CCC(=O)N4)CC3)cc2O1 (stereo not drawn) [Example 468, N-(2,2-dimethyl-6-(4-((5-oxopyrrolidin-2-yl)methyl)piperazin-1-yl)-2,3-dihydrobenzofuran-5-yl)pyrazolo[1,5-a]pyrimidine-3-carboxamide] | 0.0051
27 | CC1(C)Cc2cc(NC(=O)c3cnn4cccnc34)c(N3CCN(CC(O)CO)CC3)cc2O1 (stereo not drawn) [Example 469, N-(6-(4-(2,3-dihydroxypropyl)piperazin-1-yl)-2,2-dimethyl-2,3-dihydrobenzofuran-5-yl)pyrazolo[1,5-a]pyrimidine-3-carboxamide] | 0.0088
28 | CC1(C)Cc2cc(NC(=O)c3cnn4cccnc34)c(N3CCN(CCN4CCCC4=O)CC3)cc2O1 [Example 470, N-(2,2-dimethyl-6-(4-(2-(2-oxopyrrolidin-1-yl)ethyl)piperazin-1-yl)-2,3-dihydrobenzofuran-5-yl)pyrazolo[1,5-a]pyrimidine-3-carboxamide] | 0.012
29 | CC1(C)Cc2cc(NC(=O)c3cnn4cc(CO)cnc34)c(N3CCOCC3)cc2O1 [Example 471, N-(2,2-dimethyl-6-morpholino-3H-benzofuran-5-yl)-6-(hydroxymethyl)pyrazolo[1,5-a]pyrimidine-3-carboxamide] | 0.0065
30 | C[C@H](C(N)=O)N1CCN(c2cc3c(cc2NC(=O)c2cnn4cccnc24)CC(C)(C)O3)CC1 [Example 472, N-[6-[4-[(1R)-2-amino-1-methyl-2-oxo-ethyl]piperazin-1-yl]-2,2-dimethyl-3H-benzofuran-5-yl]pyrazolo[1,5-a]pyrimidine-3-carboxamide] | 0.0025

From patent US10988478B1, “Pyrazolo[1,5a]pyrimidine derivatives as IRAK4 modulators” (Genentech, Inc., priority 2015, dated 2021)
